Experiments:
[1] = The drug is tested on Eggerthella lenta strain: ATCC25559 for biotransformation. The drug concentrations were measured before and after a 12-h incubation by liquid-chromatography-coupled mass spectrometry (LC–MS); settings: 2 µM
[2] = The drug is tested on Bacteroides ovatus strain: ATCC8483 for biotransformation. The drug concentrations were measured before and after a 12-h incubation by liquid-chromatography-coupled mass spectrometry (LC–MS); settings: 2 µM
[3] = The drug is tested on Bacteroides pectinophilus strain: ATCC43243 for biotransformation. The drug concentrations were measured before and after a 12-h incubation by liquid-chromatography-coupled mass spectrometry (LC–MS); settings: 2 µM
[4] = The drug is tested on Clostridium sp. strain: fecal isolate for biotransformation. The drug concentrations were measured before and after a 12-h incubation by liquid-chromatography-coupled mass spectrometry (LC–MS); settings: 2 µM
[5] = The drug is tested on Clostridium symbiosum strain: ATCC14940 for biotransformation. The drug concentrations were measured before and after a 12-h incubation by liquid-chromatography-coupled mass spectrometry (LC–MS); settings: 2 µM
[6] = The drug is tested on Ruminococcus gnavus strain: ATCC29149 for biotransformation. The drug concentrations were measured before and after a 12-h incubation by liquid-chromatography-coupled mass spectrometry (LC–MS); settings: mediterraneibacter gnavus, 2 µM
[7] = The drug is tested on Ruminococcus torques strain: ATCC27756 for biotransformation. The drug concentrations were measured before and after a 12-h incubation by liquid-chromatography-coupled mass spectrometry (LC–MS); type: ADME; parameters: dose 2 uM, timepoint 0 vs 12 hours; settings: 2 µM
[8] = The drug is tested on Edwardsiella tarda strain: ATCC23685 for biotransformation. The drug concentrations were measured before and after a 12-h incubation by liquid-chromatography-coupled mass spectrometry (LC–MS); settings: 2 µM
[9] = bacteroides fragilis, 12 h, 2 µM
Description: The drug is tested on Bacteroides fragilis strain: DS-208 for biotransformation. The drug concentrations were measured before and after a 12-h incubation by liquid-chromatography-coupled mass spectrometry (LC–MS)

[10] = bacteroides stercoris, 12 h, 2 µM
Description: The drug is tested on Bacteroides stercoris strain: ATCC43183 for biotransformation. The drug concentrations were measured before and after a 12-h incubation by liquid-chromatography-coupled mass spectrometry (LC–MS)

[11] = bacteroides thetaiotaomicron, 12 h, 2 µM
Description: The drug is tested on Bacteroides thetaiotaomicron strain: 7330 for biotransformation. The drug concentrations were measured before and after a 12-h incubation by liquid-chromatography-coupled mass spectrometry (LC–MS)

[12] = anaerostipes sp., 12 h, 2 µM
Description: The drug is tested on Anaerostipes sp. strain: fecal isolate for biotransformation. The drug concentrations were measured before and after a 12-h incubation by liquid-chromatography-coupled mass spectrometry (LC–MS)

[13] = enterocloster bolteae, 12 h, 2 µM
Description: The drug is tested on Clostridium bolteae strain: ATCCBAA-613 for biotransformation. The drug concentrations were measured before and after a 12-h incubation by liquid-chromatography-coupled mass spectrometry (LC–MS)

[14] = roseburia intestinalis, 12 h, 2 µM
Description: The drug is tested on Roseburia intestinalis strain: L1-82 for biotransformation. The drug concentrations were measured before and after a 12-h incubation by liquid-chromatography-coupled mass spectrometry (LC–MS)

[15] = The drug is tested on Bifidobacterium ruminantium strain: fecal isolate for biotransformation. The drug concentrations were measured before and after a 12-h incubation by liquid-chromatography-coupled mass spectrometry (LC–MS); settings: 2 µM
[16] = The drug is tested on Bacteroides cellulosilyticus strain: DSM14838 for biotransformation. The drug concentrations were measured before and after a 12-h incubation by liquid-chromatography-coupled mass spectrometry (LC–MS); settings: 2 µM
[17] = The drug is tested on Enterobacter cancerogenus strain: ATCC35316 for biotransformation. The drug concentrations were measured before and after a 12-h incubation by liquid-chromatography-coupled mass spectrometry (LC–MS); settings: 2 µM
[18] = segatella copri, 12 h, 2 µM
Description: The drug is tested on Prevotella copri strain: DSM18205 for biotransformation. The drug concentrations were measured before and after a 12-h incubation by liquid-chromatography-coupled mass spectrometry (LC–MS)

[19] = The drug is tested on Bacteroides vulgatus strain: ATCC8482 for biotransformation. The drug concentrations were measured before and after a 12-h incubation by liquid-chromatography-coupled mass spectrometry (LC–MS); settings: phocaeicola vulgatus, 2 µM
[20] = The drug is tested on Blautia hansenii strain: DSM20583 for biotransformation. The drug concentrations were measured before and after a 12-h incubation by liquid-chromatography-coupled mass spectrometry (LC–MS); settings: 2 µM

| Bacterial Biotransformation [1] | Bacterial Biotransformation [2] | Bacterial Biotransformation [3] | Bacterial Biotransformation [4] | Bacterial Biotransformation [5] | Bacterial Biotransformation [6] | Bacterial Biotransformation [7] | Bacterial Biotransformation [8] | Bacterial Biotransformation [9] | Bacterial Biotransformation [10] | Bacterial Biotransformation [11] | Bacterial Biotransformation [12] | Bacterial Biotransformation [13] | Bacterial Biotransformation [14] | Bacterial Biotransformation [15] | Bacterial Biotransformation [16] | Bacterial Biotransformation [17] | Bacterial Biotransformation [18] | Bacterial Biotransformation [19] | Compound | Bacterial Biotransformation [20] |
| --- | --- | --- | --- | --- | --- | --- | --- | --- | --- | --- | --- | --- | --- | --- | --- | --- | --- | --- | --- | --- |
| Compound metabolized | Compound metabolized | Compound metabolized | – | Compound NOT metabolized | Compound NOT metabolized | Compound metabolized | Compound metabolized | Compound metabolized | Compound metabolized | Compound metabolized | Compound metabolized | Compound metabolized | Compound metabolized | Compound metabolized | Compound metabolized | Compound metabolized | Compound metabolized | Compound metabolized | CC(=O)OCC(=O)NCCCOc1cccc(CN2CCCCC2)c1 [ROXATIDINE ACETATE] | – |
| Compound metabolized | Compound metabolized | Compound metabolized | Compound metabolized | Compound metabolized | Compound NOT metabolized | – | Compound metabolized | Compound metabolized | Compound metabolized | Compound metabolized | Compound metabolized | Compound metabolized | – | – | Compound metabolized | Compound metabolized | Compound metabolized | Compound metabolized | CCCc1nc(C(C)(C)O)c(C(=O)OCc2oc(=O)oc2C)n1Cc1ccc(-c2ccccc2-c2nnn[nH]2)cc1 [OLMESARTAN MEDOXOMIL] | – |
| Compound NOT metabolized | Compound metabolized | Compound metabolized | – | Compound metabolized | Compound NOT metabolized | Compound metabolized | Compound metabolized | Compound metabolized | Compound metabolized | Compound metabolized | Compound metabolized | Compound metabolized | Compound metabolized | Compound metabolized | Compound metabolized | Compound metabolized | Compound metabolized | Compound metabolized | COc1ccc2c(c1OC)C(=O)O[C@@H]2[C@H]1c2c(cc3c(c2OC)OCO3)CCN1C [NOSCAPINE] | – |

Further lines, the compound ahead of its results:

| Compound | Bacterial Biotransformation [1] | Bacterial Biotransformation [2] | Bacterial Biotransformation [3] | Bacterial Biotransformation [4] | Bacterial Biotransformation [5] | Bacterial Biotransformation [6] | Bacterial Biotransformation [7] | Bacterial Biotransformation [8] | Bacterial Biotransformation [9] | Bacterial Biotransformation [10] | Bacterial Biotransformation [11] | Bacterial Biotransformation [12] | Bacterial Biotransformation [13] | Bacterial Biotransformation [14] | Bacterial Biotransformation [15] | Bacterial Biotransformation [16] | Bacterial Biotransformation [17] | Bacterial Biotransformation [18] | Bacterial Biotransformation [19] | Bacterial Biotransformation [20] |
| --- | --- | --- | --- | --- | --- | --- | --- | --- | --- | --- | --- | --- | --- | --- | --- | --- | --- | --- | --- | --- |
| CC(C)NCC(O)COc1ccc(CCOCC2CC2)cc1 (stereo not drawn) [BETAXOLOL] | Compound NOT metabolized | Compound NOT metabolized | Compound NOT metabolized | Compound NOT metabolized | Compound NOT metabolized | Compound NOT metabolized | Compound NOT metabolized | Compound NOT metabolized | Compound NOT metabolized | Compound NOT metabolized | Compound NOT metabolized | Compound NOT metabolized | Compound NOT metabolized | Compound NOT metabolized | – | – | – | – | – | – |
| CCCC(=O)Nc1ccc(OCC(O)CNC(C)C)c(C(C)=O)c1 (stereo not drawn) [ACEBUTOLOL] | Compound NOT metabolized | Compound NOT metabolized | Compound NOT metabolized | – | Compound NOT metabolized | Compound NOT metabolized | Compound NOT metabolized | Compound NOT metabolized | – | Compound NOT metabolized | Compound NOT metabolized | Compound NOT metabolized | Compound NOT metabolized | Compound NOT metabolized | Compound NOT metabolized | Compound NOT metabolized | Compound NOT metabolized | Compound NOT metabolized | – | – |
| Br.CN(C)CCCC1(c2ccc(F)cc2)OCc2cc(C#N)ccc21 (stereo not drawn) [CITALOPRAM HYDROBROMIDE] | Compound NOT metabolized | Compound NOT metabolized | Compound NOT metabolized | Compound NOT metabolized | Compound NOT metabolized | Compound NOT metabolized | Compound NOT metabolized | Compound NOT metabolized | Compound NOT metabolized | Compound NOT metabolized | Compound NOT metabolized | Compound NOT metabolized | Compound NOT metabolized | Compound NOT metabolized | Compound NOT metabolized | – | – | Compound NOT metabolized | Compound NOT metabolized | – |
| O=P1(N(CCCl)CCCl)NCCCO1 (stereo not drawn) [CYCLOPHOSPHAMIDE ANHYDROUS] | Compound NOT metabolized | Compound NOT metabolized | – | Compound NOT metabolized | Compound NOT metabolized | Compound NOT metabolized | Compound NOT metabolized | – | Compound NOT metabolized | Compound NOT metabolized | – | – | – | Compound NOT metabolized | Compound NOT metabolized | – | Compound NOT metabolized | Compound NOT metabolized | Compound NOT metabolized | Compound metabolized |
| CN(C)C(=O)Oc1cc(OC(=O)N(C)C)cc(C(O)CNC(C)(C)C)c1 (stereo not drawn) [BAMBUTEROL] | Compound NOT metabolized | Compound NOT metabolized | Compound NOT metabolized | Compound NOT metabolized | Compound NOT metabolized | Compound NOT metabolized | Compound NOT metabolized | Compound NOT metabolized | Compound NOT metabolized | Compound NOT metabolized | Compound NOT metabolized | Compound NOT metabolized | Compound NOT metabolized | Compound NOT metabolized | – | – | Compound NOT metabolized | Compound NOT metabolized | Compound NOT metabolized | Compound NOT metabolized |
| C=CCc1ccccc1OCC(O)CNC(C)C (stereo not drawn) [ALPRENOLOL] | Compound NOT metabolized | Compound NOT metabolized | – | Compound NOT metabolized | Compound NOT metabolized | Compound NOT metabolized | Compound NOT metabolized | Compound NOT metabolized | Compound NOT metabolized | Compound NOT metabolized | Compound NOT metabolized | Compound NOT metabolized | Compound NOT metabolized | Compound NOT metabolized | Compound metabolized | – | – | Compound NOT metabolized | Compound NOT metabolized | Compound NOT metabolized |
